Assay results from ChEMBL document CHEMBL1201862, “PubChem BioAssay data set” (2004).
Active and inactive are the calls of the source. Peptide text beside a SMILES is read from it. * marks the point of attachment. Cbz = O=C(OCc1ccccc1)*

Assays:
Cytochrome P450 1A2 = target: T1, Cytochrome P450 1A2 (Homo sapiens, UniProt P05177);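 note: PubChem cytochrome P450 panel assay, CYP1A2 panel member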
T1 sequence (P05177 whole entry): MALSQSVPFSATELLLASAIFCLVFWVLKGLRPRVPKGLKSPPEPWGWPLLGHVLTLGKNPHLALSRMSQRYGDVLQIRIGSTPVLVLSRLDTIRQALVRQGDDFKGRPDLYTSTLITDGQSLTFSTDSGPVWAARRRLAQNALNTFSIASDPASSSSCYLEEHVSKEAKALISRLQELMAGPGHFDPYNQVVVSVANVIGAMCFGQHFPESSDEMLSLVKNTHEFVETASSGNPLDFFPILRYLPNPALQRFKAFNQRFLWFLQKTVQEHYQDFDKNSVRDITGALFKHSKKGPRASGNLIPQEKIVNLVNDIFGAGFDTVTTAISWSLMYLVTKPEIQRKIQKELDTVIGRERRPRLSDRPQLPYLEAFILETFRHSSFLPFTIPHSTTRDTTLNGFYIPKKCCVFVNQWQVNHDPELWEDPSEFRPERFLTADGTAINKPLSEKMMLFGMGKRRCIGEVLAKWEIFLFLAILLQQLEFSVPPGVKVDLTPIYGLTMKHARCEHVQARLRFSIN

Cytochrome P450 2C9 = Cytochrome P450 2C9 (Homo sapiens, UniProt P11712)
Cytochrome P450 3A4 = Cytochrome P450 3A4 (Homo sapiens, UniProt P08684);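 note: CYP3A4 tested as one member of a cytochrome P450 panel screen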
Cytochrome P450 2D6 = Cytochrome P450 2D6 (Homo sapiens, UniProt P10635);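 note: CYP2D6 member of a cytochrome P450 panel assay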
Cytochrome P450 2C19 = Cytochrome P450 2C19 (Homo sapiens, UniProt P33261); experiment: Cytochrome panel assay with activity outcomes. Panel member name: p450-cyp2c19 Compounds with AC50 equal or less than 10 uM are considered active; assay type: functional; conditions: read-out: AC50
[1] = target: T2, Polyadenylate-binding protein 1 (Homo sapiens, UniProt P11940); experiment: MLLE binding blockers, Cy5 peptide tracer – biochemical, fluorescence polarization, Cy5-PAM2 peptide, secondary, miRNA deadenylation inhibitor project, dose response (AID 602260); assay type: functional; conditions: read-out: IC50_Mean
[2] = target: T2, Polyadenylate-binding protein 1; experiment: MLLE domain peptide-binding blockers, IC50 – biochemical, fluorescence polarization, FITC-PAM2 peptide, dose response (AID 602259); assay type: functional; conditions: read-out: IC50_Mean
[3] = target: T3, Replicative DNA helicase DnaB (Mycobacterium tuberculosis, UniProt P9WMR3); experiment: DnaB intein splicing inhibitors, dose response, biochemical, cell-free fluorescence (AID 449749); assay type: functional
T3 sequence (P9WMR3 whole entry): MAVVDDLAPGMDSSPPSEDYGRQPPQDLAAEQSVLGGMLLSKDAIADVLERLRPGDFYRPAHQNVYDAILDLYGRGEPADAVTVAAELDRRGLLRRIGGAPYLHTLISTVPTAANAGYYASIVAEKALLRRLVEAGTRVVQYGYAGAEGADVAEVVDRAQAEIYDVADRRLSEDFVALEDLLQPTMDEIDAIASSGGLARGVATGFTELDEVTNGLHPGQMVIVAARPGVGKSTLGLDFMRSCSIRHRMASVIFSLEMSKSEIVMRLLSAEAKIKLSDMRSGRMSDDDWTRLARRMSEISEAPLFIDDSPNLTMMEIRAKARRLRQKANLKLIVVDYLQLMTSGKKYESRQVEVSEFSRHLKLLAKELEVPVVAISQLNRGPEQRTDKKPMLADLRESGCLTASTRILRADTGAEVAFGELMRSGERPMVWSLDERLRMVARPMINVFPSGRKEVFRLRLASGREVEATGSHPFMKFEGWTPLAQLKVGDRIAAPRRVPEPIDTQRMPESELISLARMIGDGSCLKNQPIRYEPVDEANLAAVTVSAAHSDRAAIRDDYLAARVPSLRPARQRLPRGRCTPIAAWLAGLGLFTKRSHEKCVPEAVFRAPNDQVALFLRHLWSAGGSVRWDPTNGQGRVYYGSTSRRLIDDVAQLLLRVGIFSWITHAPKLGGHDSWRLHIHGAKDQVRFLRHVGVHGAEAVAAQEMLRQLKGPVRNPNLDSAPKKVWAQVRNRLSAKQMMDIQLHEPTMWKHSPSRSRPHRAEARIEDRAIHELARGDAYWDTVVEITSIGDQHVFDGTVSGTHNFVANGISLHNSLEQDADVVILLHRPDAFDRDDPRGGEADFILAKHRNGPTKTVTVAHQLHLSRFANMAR

Protein RecA = target: T4, Protein RecA (Mycobacterium tuberculosis, UniProt P9WHJ3); experiment: Fluorescence Cell-Free Homogeneous Dose Retest to Identify Inhibitors of RecA-Intein Splicing Activity. [Related pubchem assays (depositor defined):AID2097, AID2223, AID489010, AID492950]; assay type: functional
T4 sequence (P9WHJ3 whole entry): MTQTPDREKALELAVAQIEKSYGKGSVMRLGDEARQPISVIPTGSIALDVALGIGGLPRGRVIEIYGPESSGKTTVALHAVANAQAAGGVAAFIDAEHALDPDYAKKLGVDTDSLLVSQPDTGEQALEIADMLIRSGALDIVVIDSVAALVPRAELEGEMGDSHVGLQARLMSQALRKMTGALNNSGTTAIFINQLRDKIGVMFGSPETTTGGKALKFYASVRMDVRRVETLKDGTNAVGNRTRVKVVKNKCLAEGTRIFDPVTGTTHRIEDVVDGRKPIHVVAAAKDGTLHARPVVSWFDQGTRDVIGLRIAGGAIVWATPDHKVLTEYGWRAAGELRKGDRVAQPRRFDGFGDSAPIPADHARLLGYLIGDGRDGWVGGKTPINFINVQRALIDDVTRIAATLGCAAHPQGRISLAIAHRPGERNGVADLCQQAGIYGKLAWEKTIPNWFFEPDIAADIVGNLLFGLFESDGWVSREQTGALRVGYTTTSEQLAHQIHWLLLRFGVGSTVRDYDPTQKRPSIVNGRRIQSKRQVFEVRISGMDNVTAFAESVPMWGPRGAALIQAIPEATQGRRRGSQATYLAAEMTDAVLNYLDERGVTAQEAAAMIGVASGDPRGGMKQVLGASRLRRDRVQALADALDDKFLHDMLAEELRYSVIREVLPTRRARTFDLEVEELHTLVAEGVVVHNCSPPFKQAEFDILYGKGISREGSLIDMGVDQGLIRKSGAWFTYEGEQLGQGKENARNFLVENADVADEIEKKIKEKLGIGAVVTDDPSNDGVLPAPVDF

T2 sequence (P11940 whole entry, the tested form may be a part): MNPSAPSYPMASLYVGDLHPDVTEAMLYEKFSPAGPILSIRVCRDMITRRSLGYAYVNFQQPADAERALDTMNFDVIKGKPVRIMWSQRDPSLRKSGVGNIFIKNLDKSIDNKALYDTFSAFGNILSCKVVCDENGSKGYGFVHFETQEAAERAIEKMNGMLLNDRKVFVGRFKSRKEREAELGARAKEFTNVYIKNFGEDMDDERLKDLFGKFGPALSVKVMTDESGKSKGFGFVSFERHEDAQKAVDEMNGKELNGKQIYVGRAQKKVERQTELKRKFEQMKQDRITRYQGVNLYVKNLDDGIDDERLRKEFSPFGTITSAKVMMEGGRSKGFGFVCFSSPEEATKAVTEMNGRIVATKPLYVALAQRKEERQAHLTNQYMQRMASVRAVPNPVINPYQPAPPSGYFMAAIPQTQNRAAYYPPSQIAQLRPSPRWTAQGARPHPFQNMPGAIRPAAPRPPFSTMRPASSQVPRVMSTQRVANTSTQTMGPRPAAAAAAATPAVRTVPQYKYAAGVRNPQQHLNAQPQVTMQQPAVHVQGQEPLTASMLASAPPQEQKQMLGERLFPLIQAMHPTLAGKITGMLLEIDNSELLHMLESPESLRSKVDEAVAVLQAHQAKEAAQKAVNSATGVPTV
Sequence of Cytochrome P450 2C19 (P33261 whole entry): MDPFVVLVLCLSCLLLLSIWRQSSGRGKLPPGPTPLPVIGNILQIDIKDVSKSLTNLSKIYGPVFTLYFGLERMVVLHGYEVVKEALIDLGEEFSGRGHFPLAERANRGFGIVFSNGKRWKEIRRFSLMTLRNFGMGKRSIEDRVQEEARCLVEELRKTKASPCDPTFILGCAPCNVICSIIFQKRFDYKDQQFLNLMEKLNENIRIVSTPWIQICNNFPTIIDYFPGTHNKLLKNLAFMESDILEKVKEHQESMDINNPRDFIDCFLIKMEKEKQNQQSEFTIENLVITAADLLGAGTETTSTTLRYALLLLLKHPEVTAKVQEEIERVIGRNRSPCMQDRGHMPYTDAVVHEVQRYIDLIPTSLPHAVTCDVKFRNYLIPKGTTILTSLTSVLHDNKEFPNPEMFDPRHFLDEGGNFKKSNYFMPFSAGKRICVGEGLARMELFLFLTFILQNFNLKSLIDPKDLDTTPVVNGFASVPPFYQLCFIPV
Sequence of Cytochrome P450 2C9 (P11712 whole entry): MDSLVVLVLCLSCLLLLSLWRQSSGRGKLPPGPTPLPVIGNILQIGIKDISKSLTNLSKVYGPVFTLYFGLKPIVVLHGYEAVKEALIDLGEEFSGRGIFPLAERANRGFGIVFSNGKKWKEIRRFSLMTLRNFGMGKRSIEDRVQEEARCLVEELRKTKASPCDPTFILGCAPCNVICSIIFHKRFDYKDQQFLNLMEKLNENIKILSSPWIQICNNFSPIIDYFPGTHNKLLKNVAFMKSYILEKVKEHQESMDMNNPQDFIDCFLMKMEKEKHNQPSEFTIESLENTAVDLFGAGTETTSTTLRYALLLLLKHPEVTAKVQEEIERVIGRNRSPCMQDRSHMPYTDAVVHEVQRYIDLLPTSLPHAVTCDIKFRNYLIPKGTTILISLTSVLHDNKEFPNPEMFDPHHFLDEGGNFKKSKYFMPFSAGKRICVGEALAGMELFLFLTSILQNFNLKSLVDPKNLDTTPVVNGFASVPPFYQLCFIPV
Sequence of Cytochrome P450 3A4 (P08684 whole entry): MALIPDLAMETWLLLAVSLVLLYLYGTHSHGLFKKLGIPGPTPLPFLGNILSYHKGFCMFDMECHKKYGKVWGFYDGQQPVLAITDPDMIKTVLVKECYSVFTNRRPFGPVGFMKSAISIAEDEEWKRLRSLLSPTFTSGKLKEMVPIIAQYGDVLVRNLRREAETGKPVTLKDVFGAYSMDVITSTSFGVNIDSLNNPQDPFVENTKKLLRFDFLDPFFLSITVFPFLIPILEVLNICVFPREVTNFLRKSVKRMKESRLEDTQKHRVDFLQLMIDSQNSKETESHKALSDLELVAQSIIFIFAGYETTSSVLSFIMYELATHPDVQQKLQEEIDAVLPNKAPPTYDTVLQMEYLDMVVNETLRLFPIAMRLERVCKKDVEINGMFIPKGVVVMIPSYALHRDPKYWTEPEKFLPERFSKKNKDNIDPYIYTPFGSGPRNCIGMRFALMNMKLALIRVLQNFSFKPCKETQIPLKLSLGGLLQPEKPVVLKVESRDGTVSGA
Sequence of Cytochrome P450 2D6 (P10635 whole entry): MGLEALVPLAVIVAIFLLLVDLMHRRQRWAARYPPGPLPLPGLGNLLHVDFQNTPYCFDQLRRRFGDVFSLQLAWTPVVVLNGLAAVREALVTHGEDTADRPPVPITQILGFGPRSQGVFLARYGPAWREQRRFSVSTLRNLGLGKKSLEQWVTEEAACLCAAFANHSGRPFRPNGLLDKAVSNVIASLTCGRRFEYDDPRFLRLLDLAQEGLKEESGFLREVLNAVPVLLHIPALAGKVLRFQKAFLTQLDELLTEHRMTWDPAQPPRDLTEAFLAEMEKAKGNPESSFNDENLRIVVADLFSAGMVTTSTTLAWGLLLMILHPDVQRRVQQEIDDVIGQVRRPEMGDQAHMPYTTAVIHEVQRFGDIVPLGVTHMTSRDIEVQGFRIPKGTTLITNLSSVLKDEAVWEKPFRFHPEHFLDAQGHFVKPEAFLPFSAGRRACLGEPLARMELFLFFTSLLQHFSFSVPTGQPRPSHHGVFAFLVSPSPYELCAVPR

COc1ccc(-c2nc(C(=O)N3CCN(C)CC3)sc2-c2ccc(OC)cc2)cc1 [FR-122047]
AC50 (Cytochrome P450 1A2): 31.6 µM (inconclusive)
AC50 (Cytochrome P450 2C9): 20 µM (inconclusive)
AC50 (Cytochrome P450 3A4): 7.94 µM (inconclusive)

CCCN(CCC)C(=O)Cc1c(-c2ccc(Cl)cc2)nc2c(Cl)cc(Cl)cn12 [ALPDEM]
AC50 (Cytochrome P450 3A4): 0.794 µM (inconclusive)

O=C(CCc1nc(-c2ccccc2)c(-c2ccccc2)o1)OCc1ccc(Cl)cc1
AC50 (Cytochrome P450 3A4): 35.5 µM (inconclusive)

COc1ccccc1CNc1nc(-c2c(C)noc2C)nc2ccccc12
AC50 (Cytochrome P450 2C9): 1 µM (inconclusive)
AC50 (Cytochrome P450 2D6): 7.94 µM (inconclusive)
AC50 (Cytochrome P450 2C19): 1.58 µM (inconclusive)

Cc1ccccc1-c1nc(C[S+]([O-])CC(=O)NCCN2CCN(Cc3ccccc3)CC2)c(C)o1 (configuration not stated)
AC50 (Cytochrome P450 2C9): 39.8 µM (inconclusive)

CC[C@]1(c2ncc[nH]2)Cc2ccccc2O1
AC50 (Cytochrome P450 2C9): 25.1 µM (inconclusive)
AC50 (Cytochrome P450 2D6): 10 µM (inconclusive)

C=O.C[C@@H]1Cc2ccccc2N1NC(=O)c1ccc(Cl)c([S+](N)[O-])c1 (some centres not stated)
AC50 (Cytochrome P450 3A4): 5.01 µM (inconclusive)

CC(=O)Nc1ccc(SCC(=O)NC(=O)c2ccc(S(=O)(=O)N(C)C)cc2)cc1
IC50 [1]: > 66 µM (inactive)
IC50 [2]: > 66 µM (inactive)

N[C@@H](Cc1cc(-c2ccc(Cl)cc2Cl)cc(CP(=O)(O)O)c1O)C(=O)O
AC50 (Cytochrome P450 1A2): 20 µM (inconclusive)
AC50 (Cytochrome P450 2C9): 20 µM (inconclusive)
AC50 (Cytochrome P450 2C19): 7.94 µM (inconclusive)

O=c1cnc2cnc(Oc3cccc(Cl)c3)nc2n1Cc1ccc(F)cc1
AC50 (Cytochrome P450 3A4): 25.1 µM (inconclusive)

Cc1nc2ccccc2c2c1C(=O)NC2=O
AC50 [3]: 76.5 µM (active)
EC50 (Protein RecA): 3.72 µM (active)

CCc1noc(C)c1C(=O)N1CCN(S(=O)(=O)c2ccccc2C(F)(F)F)CC1
IC50 [1]: > 66 µM (inactive)
IC50 [2]: > 66 µM (inactive)

COc1cccc(-c2cncnc2NCc2ccccc2)c1
AC50 (Cytochrome P450 2C9): 0.158 µM (inconclusive)
AC50 (Cytochrome P450 2D6): 39.8 µM (inconclusive)

COc1cc(Cc2nccc3cc(OC)c(OC)cc23)c(S(=O)(=O)O)cc1OC
AC50 [3]: 161 µM (active)
EC50 (Protein RecA): 85.7 µM (active)

Cc1ccc(S(=O)(=O)CCSc2cccc(C(=O)O)c2)cc1
IC50 [1]: > 66 µM (inactive)
IC50 [2]: > 66 µM (inactive)

C/C(=N\NC(=O)c1cccc(Cl)c1)c1cccc(NC(=O)C(C)C)c1
AC50 (Cytochrome P450 2D6): 28.2 µM (inconclusive)
AC50 (Cytochrome P450 3A4): 15.8 µM (inconclusive)

O=C(NC(=S)Nc1cccc2cccnc12)c1ccccc1
IC50 [1]: > 66 µM (inactive)
IC50 [2]: > 66 µM (inactive)

C[C@@H](C(=O)O)/C(=C/c1ccc2c(c1)OCO2)C(=O)O
AC50 (Cytochrome P450 1A2): 0.316 µM (inconclusive)
AC50 (Cytochrome P450 3A4): 6.31 µM (inconclusive)

Cn1cc(-c2nc3cnc(N4CCOCC4)nc3n(CCC#N)c2=O)c2ccccc21
AC50 (Cytochrome P450 3A4): 15.8 µM (inconclusive)

CCC1NC(=S)N(C2CCCCC2)C1=O (configuration not stated)
AC50 (Cytochrome P450 2C9): 15.8 µM (inconclusive)
AC50 (Cytochrome P450 2C19): 5.01 µM (inconclusive)

Cc1ccc(NC(=O)C(CC(C)C)NC(N)=O)cc1 (configuration not stated)
AC50 [3]: > 380 µM (inactive)
EC50 (Protein RecA): > 380 µM (inactive)

Cc1ccc(OCC(=O)Nc2ccccc2-c2ccccc2)cc1
AC50 (Cytochrome P450 2C9): 11.2 µM (inconclusive)

O=S(=O)(NC(=S)NC1CCCCC1)c1ccccc1
IC50 [1]: > 66 µM (inactive)
IC50 [2]: > 66 µM (inactive)

COC(=O)CCC(NC(=O)OCc1ccccc1)C(=O)NC(CC(C)C)C(=O)OC (configuration not stated) (Cbz-Glu(OMe)-Leu-OMe; configuration not given here)
AC50 (Cytochrome P450 3A4): 14.1 µM (inconclusive)

Cc1n[nH]c(C)c1S(=O)(=O)N1CCOCC1
AC50 (Cytochrome P450 2C9): 17.8 µM (inconclusive)

O=C(COc1ccc(Br)cc1)NNC(=O)c1ccc(-n2cncn2)c([N+](=O)[O-])c1
IC50 [1]: > 66 µM (inactive)
IC50 [2]: > 66 µM (inactive)

O=C(N/N=C/c1ccc(Cl)cc1)Nc1ccccc1
AC50 (Cytochrome P450 2C9): 25.1 µM (inconclusive)
AC50 (Cytochrome P450 3A4): 12.6 µM (inconclusive)

COc1ccc(-c2nc3cnc(Oc4ccccc4)nc3n(C3CC3)c2=O)cc1
AC50 (Cytochrome P450 3A4): 15.8 µM (inconclusive)

C/C(=N/NC(=O)Cc1cc(O)[nH]n1)c1ccc([N+](=O)[O-])cc1
AC50 [3]: 2.51 µM (active)
EC50 (Protein RecA): 1.38 µM (active)

O=C1C(Cl)=C(N2CCOCC2)C(=O)N1c1ccccc1F
AC50 [3]: 10.8 µM (active)
EC50 (Protein RecA): 2.47 µM (active)

CC1Nc2ncnc(N3CCc4ccccc4C3)c2N(Cc2ccc(Br)cc2)C1=O (configuration not stated)
AC50 [3]: > 380 µM (inactive)
EC50 (Protein RecA): 23.7 µM (active)

COc1ccccc1C1CC(c2cccs2)=Nc2ccccc2S1 (configuration not stated)
IC50 [1]: > 66 µM (inactive)
IC50 [2]: > 66 µM (inactive)

Cc1cc(C)n2nc(SCc3cc(=O)oc4ccc5ccccc5c34)nc2n1
IC50 [1]: > 66 µM (inactive)
IC50 [2]: > 66 µM (inactive)

O=C(CN1C(=O)/C(=C/c2ccccc2Cl)SC1=S)NC1CCS(=O)(=O)C1 (configuration not stated)
IC50 [1]: > 66 µM (inactive)
IC50 [2]: > 66 µM (inactive)

O=C(O)c1nn(-c2ccccc2)ccc1=O
AC50 (Cytochrome P450 2C9): 0.398 µM (inconclusive)

CCCCn1[nH]c(-c2ccccc2)cc1=O
AC50 [3]: 2.96 µM (active)
EC50 (Protein RecA): 1.05 µM (active)

Cc1nn(CC(=O)NCc2ccccc2Cl)c(C)c1[N+](=O)[O-]
AC50 (Cytochrome P450 1A2): 12.6 µM (inconclusive)
AC50 (Cytochrome P450 2C9): 12.6 µM (inconclusive)
AC50 (Cytochrome P450 2D6): 25.1 µM (inconclusive)
AC50 (Cytochrome P450 3A4): 14.1 µM (inconclusive)

CCOC(=O)C(CC)Sc1ncnc2c1nnn2-c1ccc(F)cc1 (configuration not stated)
AC50 [3]: 0.908 µM (active)
EC50 (Protein RecA): 26.7 µM (active)

O=C(N/C(=C\c1cccs1)C(=O)N1CCCCCC1)c1ccccc1
AC50 (Cytochrome P450 2C9): 31.6 µM (inconclusive)
AC50 (Cytochrome P450 2C19): 5.01 µM (inconclusive)
